Consider 7 compounds from patent publication US9758788B2, “Mutagenesis of plants for overproduction of selective estrogen receptor modulators” (Naprogenix, Inc., priority 2014, dated 2017).

Series [1] has as its system nicAChRs. Put plainly: [3H]-dopamine release from rat brain striatal slices. It is filed as biochemical.
Another series relates to transgenic hDAT 1°HRs. The series can be described thus: Toxicity of DA-ergic toxins, trypan blue staining, transgenic hairy roots. Particulars: for cells killed by toxin exposure: 24 h, 6-OHDA 50 uM, MPTP 100 μM, MPP+ 100 μM. An excerpt: (§1) Trypan blue staining for toxicity was quantified using ImageJ software. […] Since MPTP is converted to the its cytotoxic metabolite, MPP+, by oxidases, biosynthesis of oxidase inhibitors would also confer a survival advantage if MPTP were chosen as a selection agent (monoamine oxidase inhibitors prevent MPTP toxicity in SH-SY5Y neuroblastoma cells).

The target in a further series is T1, DAT (Rattus norvegicus, UniProt P23977).
T1 construct: from tissue; host or cells: rat striatal membranes
T1 sequence (P23977 whole entry): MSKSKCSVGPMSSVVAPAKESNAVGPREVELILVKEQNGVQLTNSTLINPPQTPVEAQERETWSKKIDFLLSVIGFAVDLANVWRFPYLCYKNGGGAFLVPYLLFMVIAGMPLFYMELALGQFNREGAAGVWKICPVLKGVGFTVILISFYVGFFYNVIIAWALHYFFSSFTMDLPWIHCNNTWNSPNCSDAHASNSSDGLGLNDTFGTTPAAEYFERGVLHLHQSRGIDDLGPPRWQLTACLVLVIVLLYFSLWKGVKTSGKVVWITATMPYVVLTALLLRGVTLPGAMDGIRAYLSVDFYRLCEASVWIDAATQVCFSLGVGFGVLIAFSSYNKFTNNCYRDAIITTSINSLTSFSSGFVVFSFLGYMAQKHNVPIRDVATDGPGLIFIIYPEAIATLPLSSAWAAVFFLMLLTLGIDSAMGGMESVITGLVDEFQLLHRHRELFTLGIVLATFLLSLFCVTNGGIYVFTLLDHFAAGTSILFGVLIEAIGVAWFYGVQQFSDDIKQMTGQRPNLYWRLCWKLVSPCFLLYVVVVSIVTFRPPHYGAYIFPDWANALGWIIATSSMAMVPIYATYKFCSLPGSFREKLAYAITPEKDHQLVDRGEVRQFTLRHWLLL
Put plainly: [3H]-GBR12935 specific binding to rat striatal membranes. An excerpt:
(§2) The low affinity binding of lobinaline to this site on the DAT may therefore not be directly related to its functional effect.

For another series, the system named is SH-SY5Y cells. Put plainly: MPP+ toxicity on SH-SY5Y cells. The series is classed as cell-based, human.
From the text: (§3) Lobinaline was purified from a methanol extract prepared from dried aerial portions of L. cardinalis. The methanolic extract was dried under vacuum, resuspended in water, and defatted with hexane. The hexane phase was removed, and the remaining aqueous phase was partitioned with chloroform. The chloroform phase was collected, dried under vacuum, and lobinaline was purified from this fraction by acid/base extraction to yield lobinaline of ˜95% purity (single peak and spectroscopic authenticity by GC-MS). This compound was then dissolved in DMSO and used in aqueous solution to evaluate its effects on the dopamine transporter and nicAChRs, both in rat brain preparations and in the human dopaminergic neuroblastoma cell line SH-SY5Y. Antioxidant activity of lobinaline was evaluated using the dipheny picryl hydrazyl free radical scavenging assay.
as §2

The conditions of series [2]: PubChem; cited from earlier work.
Series [3] addresses T2, dopamine transporter (DAT) (Rattus norvegicus, UniProt P23977).
T2 construct: from tissue; host or cells: rat striatal synaptosomes
Put plainly: [3H]-dopamine uptake into rat striatal synaptosomes. It is filed as biochemical.

Series [4] has as its target nicAChRs. The series can be described thus: nicAChR binding: inhibition of [3H]-epibatidine binding. More on the design: species or system rat. Particulars: non-subtype selective radioligand.
From the text: as §3
(§4) It is therefore relatively non-selective, whereas almost all known plant alkaloids are relatively selective for the […] nicAChR.

The nature of series [5]: DPPH free radical scavenging assay. Particulars: read-out: IC50, inhibition of DPPH free radical activity.
From the text: as §3
Stable free radical diphenyl picryl hydrazyl (DPPH) scavenging was used to assess anti-oxidant activity.
Dried methanolic extracts prepared from individual L. cardinalis hairy roots were dissolved in assay buffer and tested for (a) concentration-dependent effects on [^3H]-DA uptake into rat striatal synaptosomes, (b) quenching stable DPPH radical, as measured by absorbance at 517 nm. The results are presented as “lobinaline equivalents” calculated from pure lobinaline concentration response curves (FIG. 1). […]
A general note: DPPH is a stable violet radical that fades when it is reduced.

For series [6] the following is noted: mice; compared with lobeline; cited from earlier work.
For another series, the target named is T3, alpha7 nicAChR (Rattus norvegicus, UniProt Q05941).
T3 construct: from tissue; host or cells: rat brain preparation (inferred)
T3 sequence (Q05941 23-502): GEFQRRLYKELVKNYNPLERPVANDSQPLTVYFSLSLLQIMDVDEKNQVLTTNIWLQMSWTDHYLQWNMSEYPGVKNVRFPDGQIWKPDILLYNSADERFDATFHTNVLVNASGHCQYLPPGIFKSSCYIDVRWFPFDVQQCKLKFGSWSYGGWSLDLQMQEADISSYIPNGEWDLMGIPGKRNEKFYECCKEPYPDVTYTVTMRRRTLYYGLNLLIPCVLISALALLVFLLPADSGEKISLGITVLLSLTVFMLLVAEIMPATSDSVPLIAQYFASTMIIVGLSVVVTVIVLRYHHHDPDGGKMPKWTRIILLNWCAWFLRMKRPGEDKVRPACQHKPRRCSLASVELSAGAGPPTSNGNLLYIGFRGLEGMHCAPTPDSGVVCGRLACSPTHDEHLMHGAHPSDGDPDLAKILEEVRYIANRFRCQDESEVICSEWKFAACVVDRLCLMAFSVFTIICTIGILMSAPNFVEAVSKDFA
The series can be described thus: nicAChR binding: inhibition of [3H]-MLA binding. The following applies: alpha7 selective ligand.
From the text: as §3, §4

For another series, the system named is Non-transgenic 1°HRs. The series can be described thus: Toxicity of DA-ergic toxins, trypan blue staining, non-transgenic hairy roots. It is filed as cell-based, Lobelia cardinalis. The following applies: 6-OHDA 50 uM, MPTP 100 μM, MPP+ 100 μM.
From the text: as §1

T2 sequence (P23977 whole entry): as the sequence (P23977 whole entry) above

With `CNC1(C)C2CCC(C2)C1(C)C` (stereo not shown) [mecamylamine, reference compound], the “inhibition of the initial phase of [3H] release caused by the lobinaline-containing fraction” value in the series with nicAChRs [1] (10 μM mecamylamine) is reported as “almost completely inhibited”.
Take `Fc1ccc(C(OCCN2CCN(CCCc3ccccc3)CC2)c2ccc(F)cc2)cc1` [GBR12909]: in the series with transgenic hDAT 1°HRs (toxins 6-OHDA, MPTP or MPP+), the “inhibition of toxin cytotoxicity” value is given as “inhibited”.
Regarding `CN1CCCC2C(c3ccccc3)C(C3=NCCCC3)C(c3ccccc3)CC21` (stereo not shown) [lobinaline], at DAT, the “inhibition of [3H]-GBR12935 specific binding (extent)” value is reported as “completely inhibited”. Further, the Ki (in general, a measure of affinity in units of concentration, obtained from inhibition or displacement) stood at 89 µM at DAT (read-out: Ki, inhibition of [3H]-GBR12935 specific binding); 17.3 µM on nicAChRs [4]; 105 µM at alpha7 nicAChR. The “concentration inhibiting the toxicity of MPP+” value in the series with SH-SY5Y cells was about 100 µM. Further, the “effect on DA release induced by nicotine” value in the series with nicAChRs [1] (10 μM nicotine) is “reduced the DA release”. For the same compound, the “Hydrogen Bond Acceptors” value in series [2] is recorded as 2. The “Hydrogen Bond Donors” value in series [2] is given as 0. The Log P – broadly, a log measure of how a compound divides between an organic and an aqueous phase – in series [2] was 4.8. In series [3], the “maximum inhibition of dopamine uptake” value was determined as 85.25%. Besides, the IC50 – broadly, the concentration that gives 50% inhibition – in [3] (read-out: IC50, inhibition of [3H]-dopamine uptake) was determined as 12 µM; in series [5], 21.1 µM. Further, the “mammalian toxicity (LD50)” value in series [6] is “low mammalian toxicity”.
With `CN1CC=C(c2ccccc2)CC1` [MPTP], the “damage by toxin exposure” value in the series with Non-transgenic 1°HRs was “not significantly damaged”. Besides, the “cells killed by toxin exposure” value in the series on transgenic hDAT 1°HRs is given as about 50%.
Take `O=c1c(O)c(-c2ccc(O)c(O)c2)oc2cc(O)cc(O)c12` [quercetin, reference compound]: the IC50 in series [5] was 11.2 µM.
Consider `NCCc1cc(O)c(O)cc1O` [6-OHDA], for which the “damage by toxin exposure” value with Non-transgenic 1°HRs is recorded as “not significantly damaged”. Also, the “cells killed by toxin exposure” value in the series with transgenic hDAT 1°HRs is about 50%.
Consider `C[n+]1ccc(-c2ccccc2)cc1` [MPP+], for which the “damage by toxin exposure” value with Non-transgenic 1°HRs is “not significantly damaged”. In addition, the “cells killed by toxin exposure” value in the series with transgenic hDAT 1°HRs is recorded as about 50%.
